Consider four molecules from ChEMBL document CHEMBL3407338, “Synthesis and structure-activity relationship of novel 1,4-diazabicyclo[2.2.2]octane derivatives as potent antimicrobial agents” (Eur J Med Chem, 2015).

In brackets after ≈: the same amount, converted by molar mass. A value given as a limit tells only on which side of the number the result lay.

The test system of test [1] is Bacillus subtilis. The test is described as follows: Antimicrobial activity against Bacillus subtilis ATCC 6633 at 0.1 ug/ml after 24 hrs by agar diffusion method. It is filed as functional. The following applies: ATCC 6633, 24 h, read-out: DIZ.
For test [2], the system named is Staphylococcus aureus. The test is described as follows: Antimicrobial activity against Staphylococcus aureus ATCC 25923 at 0.1 ug/ml after 24 hrs by agar diffusion method. It is filed as functional. Particulars: ATCC 25923, 24 h, read-out: DIZ. (Agar diffusion results depend on both activity and mobility in agar.)
The test system of test [3] is Pseudomonas aeruginosa. The test is described as follows: Antimicrobial activity against Pseudomonas aeruginosa ATCC 9027 at 0.1 ug/ml after 24 hrs by agar diffusion method. It is filed as functional. The following applies: ATCC 9027, 24 h, read-out: DIZ.
The test system of test [4] is Salmonella enterica. The test is described as follows: Antimicrobial activity against Salmonella enterica ATCC 14028 at 0.1 ug/ml after 24 hrs by agar diffusion method. It is filed as functional. The following applies: ATCC 14028, 24 h, read-out: DIZ.
In test [5] the test system is Escherichia coli. The test is described as follows: Antimicrobial activity against Escherichia coli ATCC 25922 at 0.1 ug/ml after 24 hrs by agar diffusion method. It is filed as functional. The following applies: ATCC 25922, 24 h, read-out: DIZ.
In test [6] the test system is Candida albicans. The test is described as follows: Antimicrobial activity against Candida albicans ATCC 32354 at 0.1 ug/ml after 24 hrs by agar diffusion method. The following applies: ATCC 32354, 24 h, read-out: DIZ. It is filed as functional.
In test [7] the test system is RPMI-8226. The test is described as follows: Cytotoxicity against human RPMI8226 cells after 72 hrs by MTT assay. It is filed as cell-based. The following applies: RPMI-8226, 72 h. In general terms: Formazan colour is commonly taken as a measure of viable cells.
Test [8] can be described thus: Cytotoxicity against mouse LMTK cells after 72 hrs by MTT assay. Type of test: cell-based. The following applies: L-M(TK-).
In test [9] the test system is MEF. The test is described as follows: Cytotoxicity against mouse MEF cells after 72 hrs by MTT assay. It is filed as cell-based.
The subject of test [10] is Bacillus subtilis. Nature of the test: Antimicrobial activity against Bacillus subtilis ATCC 6633 at 1 ug/ml after 24 hrs by agar diffusion method. The following applies: ATCC 6633, 24 h, read-out: DIZ. It is filed as functional.
Test [11] deals with Staphylococcus aureus. The test is described as follows: Antimicrobial activity against Staphylococcus aureus ATCC 25923 at 1 ug/ml after 24 hrs by agar diffusion method. Type of test: functional. Particulars: ATCC 25923, 24 h, read-out: DIZ.
For test [12], the system named is Pseudomonas aeruginosa. The test is described as follows: Antimicrobial activity against Pseudomonas aeruginosa ATCC 9027 at 1 ug/ml after 24 hrs by agar diffusion method. It is filed as functional. Particulars: ATCC 9027, 24 h, read-out: DIZ.
For test [13], the system named is Salmonella enterica. Nature of the test: Antimicrobial activity against Salmonella enterica ATCC 14028 at 1 ug/ml after 24 hrs by agar diffusion method. It is filed as functional. The following applies: ATCC 14028, 24 h, read-out: DIZ.
Test [14] has as its system Escherichia coli. The test is described as follows: Antimicrobial activity against Escherichia coli ATCC 25922 at 1 ug/ml after 24 hrs by agar diffusion method. It is filed as functional. Particulars: ATCC 25922, 24 h, read-out: DIZ.
Test [15] deals with Candida albicans. The test is described as follows: Antimicrobial activity against Candida albicans ATCC 32354 at 1 ug/ml after 24 hrs by agar diffusion method. Type of test: functional. The following applies: ATCC 32354, 24 h, read-out: DIZ.
Test [16] has as its system Bacillus subtilis. The test is described as follows: Antimicrobial activity against 10^4 CFU/ml Bacillus subtilis ATCC 6633 after 22 hrs by serial microdilution method. Type of test: functional. Particulars: ATCC 6633, 22 h. A general note: Dilution methods test growth across graded concentrations, often in twofold steps.
The subject of test [17] is Bacillus subtilis. The test is described as follows: Antimicrobial activity against 10^7 CFU/ml Bacillus subtilis ATCC 6633 after 22 hrs by serial microdilution method. Type of test: functional. The following applies: ATCC 6633, 22 h.
Test [18] relates to Pseudomonas aeruginosa. Nature of the test: Antimicrobial activity against 10^4 CFU/ml Pseudomonas aeruginosa ATCC 9027 after 22 hrs by serial microdilution method. It is filed as functional. The following applies: ATCC 9027, 22 h.
The test system of test [19] is Pseudomonas aeruginosa. The test is described as follows: Antimicrobial activity against 10^7 CFU/ml Pseudomonas aeruginosa ATCC 9027 after 22 hrs by serial microdilution method. Type of test: functional. The following applies: ATCC 9027, 22 h.
Test [20] deals with Staphylococcus aureus. The test is described as follows: Antimicrobial activity against 10^4 CFU/ml Staphylococcus aureus ATCC 25923 after 22 hrs by serial microdilution method. Particulars: ATCC 25923, 22 h. Type of test: functional.
Test [21] relates to Staphylococcus aureus. The test is described as follows: Antimicrobial activity against 10^7 CFU/ml Staphylococcus aureus ATCC 25923 after 22 hrs by serial microdilution method. Type of test: functional. Particulars: ATCC 25923, 22 h.
Test [22] deals with Escherichia coli. The test is described as follows: Antimicrobial activity against 10^4 CFU/ml Escherichia coli ATCC 25922 after 22 hrs by serial microdilution method. Type of test: functional. The following applies: ATCC 25922, 22 h.
In test [23] the test system is Escherichia coli. Nature of the test: Antimicrobial activity against 10^7 CFU/ml Escherichia coli ATCC 25922 after 22 hrs by serial microdilution method. Type of test: functional. The following applies: ATCC 25922, 22 h.
For test [24], the system named is Salmonella enterica. Nature of the test: Antimicrobial activity against 10^4 CFU/ml Salmonella enterica ATCC 14028 after 22 hrs by serial microdilution method. Type of test: functional. The following applies: ATCC 14028, 22 h.
In test [25] the test system is Salmonella enterica. The test is described as follows: Antimicrobial activity against 10^7 CFU/ml Salmonella enterica ATCC 14028 after 22 hrs by serial microdilution method. It is filed as functional. Particulars: ATCC 14028, 22 h.
Test [26] deals with Candida albicans. Nature of the test: Antimicrobial activity against 10^4 CFU/ml Candida albicans ATCC 32354 after 22 hrs by serial microdilution method. Type of test: functional. The following applies: ATCC 32354, 22 h.
For test [27], the system named is Candida albicans. The test is described as follows: Antimicrobial activity against 10^7 CFU/ml Candida albicans ATCC 32354 after 22 hrs by serial microdilution method. The following applies: ATCC 32354, 22 h. Type of test: functional.

As to `CCCCCCCCCCCCCCCC[N+]12CC[N+](CCCCC[N+]34CC[N+](CCCCCCCCCCCCCCCC)(CC3)CC4)(CC1)CC2`, the zone of inhibition at 0.1 µg/mL in [1], in test [2], in test [3], in test [4], in test [5] and in test [6] was 0 mm in each case.

Turning to `CCCCCCCCCCCCCCCCCC[N+]12CC[N+](CCCCC[N+]34CC[N+](CCCCCCCCCCCCCCCCCC)(CC3)CC4)(CC1)CC2`, the zone of inhibition at 0.1 µg/mL in [1], in test [2], in [3], in test [4], in test [5] and in [6] was 0 mm throughout.

Broadly, the IC50 is the midpoint of a concentration-inhibition curve. Low values mean inhibition by little substance, high ones a need for much substance. Regarding `CC[C@@]1(O)C(=O)OCc2c1cc1n(c2=O)Cc2cc3ccccc3nc2-1` [CAMPTOTHECIN], the 50% inhibitory concentration (IC50) worked out at 2.05 µg/mL (≈ 5.88 µM) in [7], 11.7 µg/mL (≈ 33.6 µM) in test [8] and 5.87 µg/mL (≈ 16.9 µM) in test [9].

For orientation: MIC means the lowest concentration that inhibits growth of the organism. Regarding `O=C(O)c1cn(C2CC2)c2cc(N3CCNCC3)c(F)cc2c1=O` [CIPROFLOXACIN], the zone of inhibition at 1 µg/mL came out at 30 mm in test [10]; 25 mm in test [11]; 20 mm in test [12]; 35 mm in test [13]; 30 mm in test [14]; 0 mm in test [15]. For the same molecule, the MBC in test [16] is below 0.8 µg/mL; in [17] it was below 0.8 µg/mL; in [18], 3.1 µg/mL (≈ 9.36 µM); in [19], 3.1 µg/mL (≈ 9.36 µM); in test [20], below 0.8 µg/mL; in test [21], below 0.8 µg/mL. The MBC in [22] is below 0.8 µg/mL; in test [23] it was below 0.8 µg/mL; in [24], below 0.8 µg/mL; in test [25] it was below 0.8 µg/mL; in test [26], above 100 µg/mL; in test [27], 100 µg/mL (≈ 302 µM). The MIC in test [16] was below 0.8 µg/mL; in test [17], below 0.8 µg/mL; in test [18] it was 1.6 µg/mL (≈ 4.83 µM); in test [19] it was 1.6 µg/mL (≈ 4.83 µM); in test [20] it was below 0.8 µg/mL; in test [21], below 0.8 µg/mL. Moreover, the MIC in test [22] was below 0.8 µg/mL; in test [23], below 0.8 µg/mL; in [24], below 0.8 µg/mL; in test [25] it was below 0.8 µg/mL; in [26], above 100 µg/mL; in test [27], 100 µg/mL (≈ 302 µM).
